From ChEMBL document CHEMBL5126540, “Resveratrol-based compounds and neurodegeneration: Recent insight in multitarget therapy” (Eur J Med Chem, 2022)
One block for each compound: values may come before it.

How the values were obtained:
[1] = Antioxidant activity assessed as trolox equivalent of ORAC radical scavenging activity by ORAC-FL assay; format: functional
[2] = target: T1, Amine oxidase [flavin-containing] B (Homo sapiens, UniProt P27338)
T1 sequence (P27338 whole entry): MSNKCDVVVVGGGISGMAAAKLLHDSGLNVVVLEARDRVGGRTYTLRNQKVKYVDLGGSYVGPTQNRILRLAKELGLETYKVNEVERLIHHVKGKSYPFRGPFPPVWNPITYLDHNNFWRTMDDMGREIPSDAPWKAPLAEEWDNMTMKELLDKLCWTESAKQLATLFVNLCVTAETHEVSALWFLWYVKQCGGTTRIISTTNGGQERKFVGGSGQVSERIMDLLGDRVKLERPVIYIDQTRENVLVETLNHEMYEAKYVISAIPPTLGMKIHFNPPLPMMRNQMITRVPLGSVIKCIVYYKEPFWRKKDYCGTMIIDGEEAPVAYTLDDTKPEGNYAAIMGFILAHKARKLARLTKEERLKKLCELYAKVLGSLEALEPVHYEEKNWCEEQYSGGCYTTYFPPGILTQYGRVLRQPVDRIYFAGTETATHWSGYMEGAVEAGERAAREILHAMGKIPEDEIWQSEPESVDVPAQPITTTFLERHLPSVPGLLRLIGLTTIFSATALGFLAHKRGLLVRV
Description: Inhibition of human recombinant MAO-B incubated for 30 mins by fluorescence based assay

[3] = target: T2, Acetylcholinesterase (Homo sapiens, UniProt P22303); assay: Inhibition of AChE (unknown origin) incubated for 30 mins by Ellman's method
T2 sequence (P22303 whole entry): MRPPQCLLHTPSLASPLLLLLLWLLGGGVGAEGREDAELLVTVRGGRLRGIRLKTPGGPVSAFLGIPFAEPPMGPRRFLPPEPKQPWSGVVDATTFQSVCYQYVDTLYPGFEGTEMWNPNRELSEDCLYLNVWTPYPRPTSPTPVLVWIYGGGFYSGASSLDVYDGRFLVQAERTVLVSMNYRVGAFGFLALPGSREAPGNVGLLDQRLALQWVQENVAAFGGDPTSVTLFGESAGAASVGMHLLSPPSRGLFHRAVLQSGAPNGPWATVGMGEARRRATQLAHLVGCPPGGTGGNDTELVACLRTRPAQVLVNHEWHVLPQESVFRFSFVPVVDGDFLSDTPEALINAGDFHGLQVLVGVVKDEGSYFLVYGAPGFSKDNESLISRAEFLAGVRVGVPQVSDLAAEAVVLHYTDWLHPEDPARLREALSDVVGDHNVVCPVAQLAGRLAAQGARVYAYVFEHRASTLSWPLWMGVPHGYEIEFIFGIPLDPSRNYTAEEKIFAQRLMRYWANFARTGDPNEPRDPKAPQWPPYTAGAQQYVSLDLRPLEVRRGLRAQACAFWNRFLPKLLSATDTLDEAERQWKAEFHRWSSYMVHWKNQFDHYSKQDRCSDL

[4] = target: T3, Polyunsaturated fatty acid 5-lipoxygenase (Homo sapiens, UniProt P09917); assay: Inhibition of human LOX-5 in presence of LOX substrate solution incubated for 10 mins by Varioskan-flash microplate spectrophotometer reader
T3 sequence (P09917 whole entry): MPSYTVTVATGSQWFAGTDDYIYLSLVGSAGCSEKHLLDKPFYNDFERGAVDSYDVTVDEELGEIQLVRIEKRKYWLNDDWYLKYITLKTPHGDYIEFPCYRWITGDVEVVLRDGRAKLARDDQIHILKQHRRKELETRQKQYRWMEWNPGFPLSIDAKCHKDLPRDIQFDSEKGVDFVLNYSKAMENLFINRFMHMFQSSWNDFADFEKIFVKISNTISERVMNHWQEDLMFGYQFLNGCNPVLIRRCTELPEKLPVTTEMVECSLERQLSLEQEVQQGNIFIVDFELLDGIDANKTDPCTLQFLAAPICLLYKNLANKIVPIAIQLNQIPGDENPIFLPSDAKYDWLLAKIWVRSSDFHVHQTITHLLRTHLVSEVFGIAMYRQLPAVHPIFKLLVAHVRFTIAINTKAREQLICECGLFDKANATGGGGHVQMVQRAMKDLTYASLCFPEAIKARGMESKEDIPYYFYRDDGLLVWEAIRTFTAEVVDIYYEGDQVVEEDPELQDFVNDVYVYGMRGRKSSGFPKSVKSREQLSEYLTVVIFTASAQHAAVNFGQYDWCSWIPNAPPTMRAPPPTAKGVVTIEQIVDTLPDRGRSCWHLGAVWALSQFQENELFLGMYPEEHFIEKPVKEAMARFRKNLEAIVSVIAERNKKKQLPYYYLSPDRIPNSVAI

[5] = target: Beta-secretase 1 (Homo sapiens, UniProt P56817); assay: Inhibition of human recombinant BACE-1 expressed in baculovirus using Rh-EVNLDAEFK-Quencher as substrate incubated for 60 mins by measuring increase in fluorescence intensity using fluorescence microplate reader
Sequence of Beta-secretase 1 (P56817 whole entry): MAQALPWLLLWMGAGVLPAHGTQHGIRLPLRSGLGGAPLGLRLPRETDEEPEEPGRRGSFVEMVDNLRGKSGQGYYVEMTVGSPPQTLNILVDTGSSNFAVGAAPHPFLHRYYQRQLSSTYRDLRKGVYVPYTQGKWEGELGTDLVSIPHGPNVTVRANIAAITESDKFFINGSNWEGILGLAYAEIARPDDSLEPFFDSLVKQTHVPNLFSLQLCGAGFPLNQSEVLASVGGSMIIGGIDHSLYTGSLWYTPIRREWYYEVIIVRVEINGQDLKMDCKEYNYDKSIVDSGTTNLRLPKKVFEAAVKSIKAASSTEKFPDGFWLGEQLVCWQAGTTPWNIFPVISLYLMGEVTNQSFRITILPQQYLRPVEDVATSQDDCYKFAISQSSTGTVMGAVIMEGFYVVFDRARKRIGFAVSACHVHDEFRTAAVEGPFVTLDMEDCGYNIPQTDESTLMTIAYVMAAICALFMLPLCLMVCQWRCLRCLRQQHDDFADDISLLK

[6] = target: T4, Cholinesterase (Homo sapiens, UniProt P06276)
T4 sequence (P06276 whole entry): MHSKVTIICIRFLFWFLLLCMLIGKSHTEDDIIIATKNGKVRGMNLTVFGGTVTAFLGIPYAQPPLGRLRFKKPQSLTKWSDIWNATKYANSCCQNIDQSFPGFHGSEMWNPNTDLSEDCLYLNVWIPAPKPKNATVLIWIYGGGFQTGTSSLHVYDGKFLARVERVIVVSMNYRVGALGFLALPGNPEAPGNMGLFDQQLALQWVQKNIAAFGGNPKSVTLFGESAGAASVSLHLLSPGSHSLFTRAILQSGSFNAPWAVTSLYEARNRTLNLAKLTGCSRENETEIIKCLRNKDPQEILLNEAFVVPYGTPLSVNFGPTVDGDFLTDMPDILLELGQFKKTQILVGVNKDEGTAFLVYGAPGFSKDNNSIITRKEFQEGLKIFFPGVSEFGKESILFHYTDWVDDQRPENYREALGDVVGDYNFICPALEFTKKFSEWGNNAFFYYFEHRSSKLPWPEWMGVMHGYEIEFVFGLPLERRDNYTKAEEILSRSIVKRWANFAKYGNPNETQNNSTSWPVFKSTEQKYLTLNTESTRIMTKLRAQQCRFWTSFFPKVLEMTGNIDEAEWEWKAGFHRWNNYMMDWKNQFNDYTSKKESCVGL
Description: Inhibition of BChE (unknown origin) incubated for 30 mins by Ellman's method

[7] = Antioxidant activity assessed as DPPH radical scavenging activity measured after 45 mins by Varioskan-flash microplate spectrophotometer reader; format: functional
[8] = time 30.0 min
[9] = target: T2, Acetylcholinesterase; assay: Binding affinity to AChE (unknown origin) assessed as inhibition constant
[10] = Antioxidant activity assessed as ABTS radical scavenging activity; format: functional
[11] = Antioxidant activity assessed as ABTS radical scavenging activity measured after 6 mins; format: functional
[12] = Antioxidant activity assessed as DPPH radical scavenging activity measured after 20 mins; format: functional
[13] = Antioxidant activity assessed as galvinoxyl radical scavenging activity measured after 20 mins; format: functional
[14] = tested on: C2C12; assay: Cytotoxicity against mouse C2C12 cells incubated for 24 to 48 hrs by MTT assay; format: toxicity, cell-based; conditions: time 24-48 hrs
[15] = tested on: Liver; assay: tissue or blood; conditions: Canis lupus familiaris
Description: Antioxidant activity assessed as Fe2+/ascorbate-induced MDA level in liver mitochondria (unknown origin) preincubated for 30 mins followed by addition of Fe2+/ascorbate measured after 30 mins

[16] = target: T1, Amine oxidase [flavin-containing] B; assay: Inhibition of human recombinant MAO-B incubated for 15 mins by Amplex red MAO assay
[17] = tested on: PC-12; assay: Neuroprotective activity against H2o2-induced rat PC-12 cells assessed as cell viability preincubated for 2 hrs followed by H2O2 treatment measured after 24 hrs by MTT assay; format: functional; conditions: time 26 hrs
[18] = target: T4, Cholinesterase; assay: Inhibition of BChE (unknown origin) using BTCI as substrate incubated for 30 mins by Ellman's method
[19] = Antioxidant activity assessed as DPPH radical scavenging activity measured after 15 mins; format: functional
[20] = target: T5, Amyloid-beta precursor protein (Homo sapiens, UniProt P05067); assay: Inhibition of Amyloid beta (1 to 42) (unknown origin) self aggregation at 25 uM by ThT-based fluorescence assay relative to control
T5 sequence (P05067 whole entry): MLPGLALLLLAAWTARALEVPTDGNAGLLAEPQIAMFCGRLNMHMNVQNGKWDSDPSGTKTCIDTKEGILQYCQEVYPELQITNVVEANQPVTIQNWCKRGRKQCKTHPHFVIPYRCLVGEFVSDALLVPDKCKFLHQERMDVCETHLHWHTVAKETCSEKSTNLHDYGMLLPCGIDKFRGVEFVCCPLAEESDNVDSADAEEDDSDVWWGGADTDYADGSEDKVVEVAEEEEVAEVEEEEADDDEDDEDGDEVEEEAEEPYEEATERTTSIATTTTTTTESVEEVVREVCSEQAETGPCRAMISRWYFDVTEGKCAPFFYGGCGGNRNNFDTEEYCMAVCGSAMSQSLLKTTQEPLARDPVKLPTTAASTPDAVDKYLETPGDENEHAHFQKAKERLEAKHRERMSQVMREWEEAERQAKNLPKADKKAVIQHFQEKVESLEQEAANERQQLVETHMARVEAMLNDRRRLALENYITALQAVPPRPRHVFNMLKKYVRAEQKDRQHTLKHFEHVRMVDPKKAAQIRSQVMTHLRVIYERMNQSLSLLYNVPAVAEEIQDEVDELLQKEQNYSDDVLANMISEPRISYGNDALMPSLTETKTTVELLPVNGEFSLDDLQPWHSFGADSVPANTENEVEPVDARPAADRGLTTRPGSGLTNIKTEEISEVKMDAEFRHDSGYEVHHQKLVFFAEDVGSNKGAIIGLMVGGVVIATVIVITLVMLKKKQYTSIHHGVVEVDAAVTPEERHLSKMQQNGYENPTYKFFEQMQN

[21] = target: T2, Acetylcholinesterase; assay: Inhibition of AChE (unknown origin) using ATCI as substrate incubated for 30 mins by Ellman's method
[22] = target: Carbonic anhydrase 2 (Homo sapiens, UniProt P00918)
Description: Binding affinity to carbonic anhydrase 2 (unknown origin) assessed as inhibition constant

[23] = target: Carbonic anhydrase 1 (Homo sapiens, UniProt P00915); assay: Binding affinity to carbonic anhydrase 1 (unknown origin) assessed as inhibition constant
Sequence of Carbonic anhydrase 1 (P00915 whole entry): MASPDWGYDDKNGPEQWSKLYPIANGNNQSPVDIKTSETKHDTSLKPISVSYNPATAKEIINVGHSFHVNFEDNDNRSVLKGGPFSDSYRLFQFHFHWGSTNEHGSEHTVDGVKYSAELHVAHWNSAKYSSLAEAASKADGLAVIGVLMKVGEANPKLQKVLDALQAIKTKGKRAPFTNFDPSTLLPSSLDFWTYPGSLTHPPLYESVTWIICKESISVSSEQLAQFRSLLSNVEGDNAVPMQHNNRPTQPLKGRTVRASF

[24] = target: Acetylcholinesterase (Electrophorus electricus, UniProt O42275); assay: Inhibition of electric eel AChE measured after 2 mins by Ellman's method
Sequence of Acetylcholinesterase (Electrophorus electricus, UniProt O42275) (O42275 whole entry): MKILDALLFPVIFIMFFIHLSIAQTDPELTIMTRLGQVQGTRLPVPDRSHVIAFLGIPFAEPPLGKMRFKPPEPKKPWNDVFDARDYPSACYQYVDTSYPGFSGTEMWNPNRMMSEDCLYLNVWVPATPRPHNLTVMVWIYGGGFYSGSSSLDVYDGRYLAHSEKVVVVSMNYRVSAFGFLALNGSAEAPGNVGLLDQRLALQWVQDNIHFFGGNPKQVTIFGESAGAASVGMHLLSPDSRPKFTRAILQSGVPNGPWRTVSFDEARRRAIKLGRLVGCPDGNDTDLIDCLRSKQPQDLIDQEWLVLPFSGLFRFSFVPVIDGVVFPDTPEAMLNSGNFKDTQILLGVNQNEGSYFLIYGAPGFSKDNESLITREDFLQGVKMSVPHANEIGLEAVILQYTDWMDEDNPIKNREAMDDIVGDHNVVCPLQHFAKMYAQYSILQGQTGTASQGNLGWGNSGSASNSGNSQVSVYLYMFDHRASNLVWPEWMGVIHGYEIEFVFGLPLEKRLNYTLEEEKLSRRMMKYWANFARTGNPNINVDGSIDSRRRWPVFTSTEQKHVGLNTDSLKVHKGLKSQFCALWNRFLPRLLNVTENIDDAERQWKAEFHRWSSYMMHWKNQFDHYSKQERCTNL

[25] = Permeability of the compound across blood brain barrier measured after 18 hrs by parallel artificial membrane permeation assay; format: ADME; conditions: PAMPA, read-out: permeability
[26] = target: T5, Amyloid-beta precursor protein; assay: Inhibition of Amyloid beta (1 to 42) (unknown origin) self aggregation at 25 uM incubated for 24 hrs by ThT-based fluorescence assay relative to control
[27] = target: T5, Amyloid-beta precursor protein
[28] = target: T5, Amyloid-beta precursor protein; assay: Inhibition of HFIP-treated Amyloid beta (1 to 42) (unknown origin) self aggregation at 20 uM incubated for 46 to 48 hrs by fluorescence based assay relative to control; conditions: time 46-48 hrs
[29] = target: T6, Amine oxidase [flavin-containing] A (Homo sapiens, UniProt P21397)
T6 sequence (P21397 whole entry): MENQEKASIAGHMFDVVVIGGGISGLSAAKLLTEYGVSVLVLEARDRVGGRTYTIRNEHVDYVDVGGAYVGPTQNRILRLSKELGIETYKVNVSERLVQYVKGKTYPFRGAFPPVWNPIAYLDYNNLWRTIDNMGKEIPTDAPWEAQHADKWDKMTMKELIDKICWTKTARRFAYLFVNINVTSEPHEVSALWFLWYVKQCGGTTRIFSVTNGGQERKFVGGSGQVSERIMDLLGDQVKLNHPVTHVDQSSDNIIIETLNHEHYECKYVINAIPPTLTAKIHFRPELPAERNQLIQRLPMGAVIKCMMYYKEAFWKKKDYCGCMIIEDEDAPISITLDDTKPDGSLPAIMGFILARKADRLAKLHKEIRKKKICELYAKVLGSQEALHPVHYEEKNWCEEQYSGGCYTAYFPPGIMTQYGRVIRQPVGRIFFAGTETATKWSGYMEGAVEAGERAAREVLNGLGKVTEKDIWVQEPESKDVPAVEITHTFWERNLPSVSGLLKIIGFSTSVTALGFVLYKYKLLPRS
Description: Inhibition of human recombinant MAO-A incubated for 15 mins by Amplex red MAO assay

[30] = target: T2, Acetylcholinesterase; assay: Binding affinity to AChE (unknown origin) assessed as inhibition constant using AChI as substrate incubated for 15 mins by Ellman's spectrophotometric method

IC50 [2]: 1.5 µM
Structure (SMILES): Cc1ncc(/C=C/c2ccc(CN3CCCCC3)c(O)c2)c2c1OC(C)(C)OC2
Activity [1]: 1.52 µM

Structure (SMILES): COc1cc(/C=C/c2cc(=O)oc3c2ccc2oc(-c4cc(OC)cc(OC)c4)cc23)cc(OC)c1
IC50 [3]: 2.8 µM
IC50 [4]: 13.9 µM
IC50 [5]: 15.3 µM
IC50 [6]: 6.3 µM
Activity [7]: 6.8 µM

Structure (SMILES): COc1cc(/C=C/c2cc(=O)oc3c2ccc2oc(-c4ccc(F)cc4)cc23)cc(OC)c1
IC50 [3]: 1.8 µM
IC50 [4]: 13.9 µM
IC50 [6]: 3.5 µM

Structure (SMILES): NS(=O)(=O)c1ccc(NCc2cccc(Br)c2O)cc1
Activity [8]: 4.2%
Ki [9]: 0.0777 µM
Activity [10]: 74.5%

Structure (SMILES): COc1cc(/C=C/c2cc(=O)oc3c2ccc2oc(-c4cccc(Cl)c4)cc23)cc(OC)c1
IC50 [3]: 1.8 µM
IC50 [4]: 13.9 µM
IC50 [6]: 3.5 µM

Structure (SMILES): Oc1ccc(/N=C/c2ccc(O)c(O)c2O)cc1
RC50 [11]: 1.98 µmol/mL
RC50 [12]: 8.77 µmol/mL
RC50 [13]: 15.4 µmol/mL

IC50 [2]: 2.11 µM
Structure (SMILES): Cc1ncc(/C=C/c2ccc(CN3CCCCC3)c(O)c2)c(CO)c1O
Activity [1]: 1.52 µM

Structure (SMILES): COc1ccc(-c2cc3c(ccc4c(/C=C/c5cc(OC)cc(OC)c5)cc(=O)oc43)o2)cc1
IC50 [3]: 1.8 µM
IC50 [4]: 13.9 µM
IC50 [6]: 3.5 µM

Structure (SMILES): Oc1ccc(/C=C/c2cc(O)cc(O)c2)cc1 [RESVERATROL]
RC50 [11]: 1.43 µmol/mL
RC50 [12]: 26.4 µmol/mL
Activity [14]: 110%
EC50 [15]: 7.44 µM
IC50 [16]: 31.8 µM
Activity [17]: 81.23%
RC50 [13]: 72.7 µmol/mL

Structure (SMILES): COc1cc(/C=C/c2cc(=O)oc3c2ccc2oc(-c4ccc(Cl)cc4)cc23)cc(OC)c1
IC50 [3]: 1.8 µM
IC50 [4]: 13.9 µM
IC50 [6]: 3.5 µM

Structure (SMILES): Cc1ncc(/C=C/c2ccc(CN3CCOCC3)c(O)c2)c(CO)c1O
Activity [1]: 1.52 µM

Structure (SMILES): CCn1c2ccccc2c2cc(/C=C/c3ccc(NC(=S)NCCN4CCCC4)cc3)ccc21
IC50 [18]: 1.29 µM
Activity [19]: 86.1 µM
inhibition [20]: 51.3%
IC50 [21]: 2.64 µM

Structure (SMILES): Oc1ccc(/C=C/c2ccc(C(F)(F)F)cc2)cc1Cl
Activity [14]: 150%

Structure (SMILES): NS(=O)(=O)c1ccc(/N=C/c2cc(Br)cc(Cl)c2O)cc1
Ki [22]: 0.016 µM
Ki [9]: 0.021 µM
Ki [23]: 0.0321 µM

Structure (SMILES): CCN(CC)C[C@@H](O)COc1ccc(/C=C/c2cc(OC)cc(OC)c2)cc1
IC50 [24]: 24 µM
Papp at 18 h [25]: 81.2 nm/s
Activity [17]: 74.9%
inhibition [26]: 40.2%

Structure (SMILES): NS(=O)(=O)c1ccc(NCc2cccc(Cl)c2O)cc1
Ki [9]: 0.021 µM

IC50 [27]: 19.5 µM
inhibition [28]: 58.9%
IC50 [16]: 1.14 µM
IC50 [29]: 2.6 µM
Structure (SMILES): Clc1ccc(/C=N/c2ccc3cn[nH]c3c2)cc1Cl

Structure (SMILES): NS(=O)(=O)c1ccc(/N=C/c2cc(Br)cc(Br)c2O)cc1
Ki [30]: 2.54 µM
Ki [9]: 0.021 µM
Ki [23]: 0.0321 µM

Structure (SMILES): COc1cc(/C=C/c2cc(=O)oc3c2ccc2oc(-c4cccc(F)c4)cc23)cc(OC)c1
IC50 [3]: 1.8 µM
IC50 [4]: 13.9 µM
IC50 [6]: 3.5 µM

Structure (SMILES): COc1cc(/C=C/c2cc(=O)oc3c2ccc2oc(-c4ccccc4)cc23)cc(OC)c1
IC50 [3]: 1.8 µM
IC50 [4]: 13.9 µM
IC50 [6]: 3.5 µM

Structure (SMILES): COc1cc(/C=C/c2cc(=O)oc3c2ccc2oc(-c4ccc(C)cc4)cc23)cc(OC)c1
IC50 [3]: 1.8 µM
IC50 [4]: 13.9 µM
IC50 [6]: 3.5 µM

EC50 [15]: 2.43 µM
Structure (SMILES): CCc1nc(/C=C/c2ccc(O)c(O)c2)ccc1O
